Active and inactive are the calls of the source. No cut-off for these calls is given here.
Assays:
U373-MAGI [1] = test: Reduction in dCTP level in human U373-MAGI cells at 2.5 nM preincubated for 2 hrs followed by 5-aza-dC addition measured after 4 hrs by LC-MS/MS analysis relative to 5-aza-dC; type: functional, cell-based
U373-MAGI [2] = test: Reduction in dCTP level in human U373-MAGI cells at 2.5 nM preincubated for 2 hrs followed by 5-aza-C addition measured after 4 hrs by LC-MS/MS analysis; type: functional, cell-based
[3] = Cytotoxicity against human U373-MAGI cells at 2.5 nM measured at 72 hrs by Celltiter-Glo luminescent cell viability assay; type: cell-based; settings: 0.0025 µM
U373-MAGI [4] = test: Reduction in dRGU-TP level in human U373-MAGI cells at 25 nM preincubated for 2 hrs followed by 5-aza-C addition measured after 4 hrs by LC-MS/MS analysis; type: functional, cell-based
U373-MAGI [5] = test: Reduction in 5-aza-dCTP level in human U373-MAGI cells at 25 nM preincubated for 2 hrs followed by 5-aza-C addition measured after 4 hrs by LC-MS/MS analysis; type: functional, cell-based
U373-MAGI [6] = test: Effect on dRGU-TP level in human U373-MAGI cells at 2.5 nM preincubated for 2 hrs followed by 5-aza-dC addition measured after 4 hrs by LC-MS/MS analysis; type: functional, cell-based
U373-MAGI [7] = test: Reduction in dATP level in human U373-MAGI cells at 25 nM after 6 hrs by LC-MS/MS analysis; type: functional, cell-based
U373-MAGI [8] = test: Reduction in dGTP level in human U373-MAGI cells at 2.5 nM after 6 hrs by LC-MS/MS analysis; type: functional, cell-based
U373-MAGI [9] = test: Reduction in dTTP level in human U373-MAGI cells at 25 nM after 6 hrs by LC-MS/MS analysis; type: functional, cell-based
[10] = system: Human immunodeficiency virus 1; test: Antiviral activity against VSV-G pseudotyped HIV-1 NL4-3 infected in human U373-MAGI cells assessed as reduction in viral infectivity at 2.5 nM incubated for 4 hrs prior to viral infection measured at 72 hrs post infection by flow cytometric analysis; type: functional, organism-based
U373-MAGI [11] = test: Reduction in dTTP level in human U373-MAGI cells at 2.5 nM after 6 hrs by LC-MS/MS analysis; type: functional, cell-based
U373-MAGI [12] = test: Increase in 5-aza-dCTP/dCTP ratio in human U373-MAGI cells at 25 nM preincubated for 2 hrs followed by 5-aza-dC addition measured after 4 hrs by LC-MS/MS analysis relative to 5-aza-dC; type: functional, cell-based
U373-MAGI [13] = test: Effect on 5-aza-dCTP level in human U373-MAGI cells at 2.5 nM preincubated for 2 hrs followed by 5-aza-dC addition measured after 4 hrs by LC-MS/MS analysis; type: functional, cell-based
U373-MAGI [14] = test: Reduction in dGTP level in human U373-MAGI cells at 25 nM after 6 hrs by LC-MS/MS analysis; type: functional, cell-based
U373-MAGI [15] = test: Reduction in dCTP level in human U373-MAGI cells at 25 nM preincubated for 2 hrs followed by 5-aza-dC addition measured after 4 hrs by LC-MS/MS analysis relative to 5-aza-dC; type: functional, cell-based
U373-MAGI [16] = test: Reduction in dCTP level in human U373-MAGI cells at 25 nM after 6 hrs by LC-MS/MS analysis; type: functional, cell-based
U373-MAGI [17] = test: Reduction in dCTP level in human U373-MAGI cells at 2.5 nM after 6 hrs by LC-MS/MS analysis; type: functional, cell-based
U373-MAGI [18] = test: Reduction in 5-aza-dCTP level in human U373-MAGI cells at 2.5 nM preincubated for 2 hrs followed by 5-aza-C addition measured after 4 hrs by LC-MS/MS analysis; type: functional, cell-based
[19] = Reduction in dATP level in human U373-MAGI cells at 2.5 nM after 6 hrs by LC-MS/MS analysis; type: functional; design: scale not given: the % may be the effect or the level left
U373-MAGI [20] = test: Reduction in dRGU-TP level in human U373-MAGI cells at 2.5 nM preincubated for 2 hrs followed by 5-aza-C addition measured after 4 hrs by LC-MS/MS analysis; type: functional, cell-based
[21] = system: Human immunodeficiency virus 1; test: Potentiation of 5-Aza-C-induced antiviral activity against VSV-G pseudotyped HIV-1 NL4-3 infected in human U373-MAGI cells assessed as decrease in 5-Aza-C EC50 at 2.5 nM preincubated for 2 hrs followed by 5-Aza-C addition for 2 hrs and subsequent viral infection measured at 72 hrs post infection by flow cytometric analysis relative to control; type: functional
U373-MAGI [22] = test: Increase in 5-aza-dCTP/dCTP ratio in human U373-MAGI cells at 2.5 nM preincubated for 2 hrs followed by 5-aza-C addition measured after 4 hrs by LC-MS/MS analysis relative to 5-aza-C; type: functional, cell-based
U373-MAGI [23] = test: Effect on 5-aza-dCTP level in human U373-MAGI cells at 25 nM preincubated for 2 hrs followed by 5-aza-dC addition measured after 4 hrs by LC-MS/MS analysis; type: functional, cell-based
U373-MAGI [24] = test: Reduction in dCTP level in human U373-MAGI cells at 25 nM preincubated for 2 hrs followed by 5-aza-C addition measured after 4 hrs by LC-MS/MS analysis relative to 5-aza-C; type: functional, cell-based
U373-MAGI [25] = test: Increase in 5-aza-dCTP/dCTP ratio in human U373-MAGI cells at 2.5 nM preincubated for 2 hrs followed by 5-aza-dC addition measured after 4 hrs by LC-MS/MS analysis relative to 5-aza-dC; type: functional, cell-based
U373-MAGI [26] = test: Effect on dRGU-TP level in human U373-MAGI cells at 25 nM preincubated for 2 hrs followed by 5-aza-dC addition measured after 4 hrs by LC-MS/MS analysis; type: functional, cell-based
U373-MAGI [27] = test: Increase in 5-aza-dCTP/dCTP ratio in human U373-MAGI cells at 25 nM preincubated for 2 hrs followed by 5-aza-C addition measured after 4 hrs by LC-MS/MS analysis relative to 5-aza-C; type: functional, cell-based

In the case of Nc1ccn([C@@H]2O[C@H](CO)[C@@H](O)C2(F)F)c(=O)n1 [GEMCITABINE], the Activity (U373-MAGI [1]) is reported as “Active”, the Activity (U373-MAGI [2]) is reported as “Active” and the Activity [3] is reported as “Non-toxic”. The Activity (U373-MAGI [4]) was “Active”, the Activity (U373-MAGI [5]) was “Active” and the Activity (U373-MAGI [6]) was “inactive”. For the same molecule, the Activity (U373-MAGI [7]) was “Active”, the Activity (U373-MAGI [8]) was “inactive” and the Activity (U373-MAGI [9]) was “inactive”. The Activity [10] was “Active”, the Activity (U373-MAGI [11]) was “inactive” and the Activity (U373-MAGI [12]) was “Active”. For the same molecule, the Activity (U373-MAGI [13]) was “inactive”, the Activity (U373-MAGI [14]) was “Active” and the Activity (U373-MAGI [15]) was “Active”. For the same molecule, the Activity (U373-MAGI [16]) was “Active”, the Activity (U373-MAGI [17]) was “inactive” and the Activity (U373-MAGI [18]) was “inactive”. The Activity [19] was 30%, the Activity (U373-MAGI [20]) was “inactive” and the “fold change (FC)” value [21] was 2.5. The Activity (U373-MAGI [22]) was “inactive”, the Activity (U373-MAGI [23]) was “inactive” and the Activity (U373-MAGI [24]) was “Active”. For the same molecule, the Activity (U373-MAGI [25]) was “Active”, the Activity (U373-MAGI [26]) was “inactive” and the Activity (U373-MAGI [27]) was “inactive”.
